Assay results reported in patent US12257243B2, “5-hydroxy-7-oxabicyclo[2.2.1]heptane-2-carboxamide derivatives for inducing chondrogenesis for treating joint damage” (NOVARTIS AG, priority 2018, dated 2025).
Like-named read-outs stand apart in the source and are kept apart here.

Test system: ALP in normal human articular chondrocytes (NHACs)
Test: Alkaline Phosphatase (ALP) activity assay (staining and quantitation) in NHACs, prevention of chondrocyte hypertrophy
Type: cell-based
Settings: human IL-1 beta 10 ng/mL, 12 days; for IC50: Fast Blue RR staining, high content imaging, read-out: ALP in NHAC IC50; for Emax: read-out: ALP in NHAC (% Efficacy)
Summary of the method: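 Hypertrophy readout: ALP staining (Fast Blue RR with naphthol AS-MX phosphate) plus Hoechst, imaged at 561 nm and/or quantified by high-content multiwavelength cell scoring. Before staining, NHACs (7,500/well, DMEM/10% FBS) were exposed to compound for 5 h, then cultured with 10 ng/mL IL-1β for 12 days at 37 °C.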

[1] = Chondrocyte, 288 h, value in parentheses

| Compound | IC50 (Chondrocyte, 288 h) | Emax [1] | IC50 | ALP in NHAC (% Efficacy) (value in parentheses) |
| --- | --- | --- | --- | --- |
| CC(C)n1cc([C@H]2[C@H]3O[C@H](C[C@@H]3O)[C@@H]2C(=O)Nc2cc(C(F)(F)F)ccn2)c(C(F)(F)F)n1 (racemic) [Example 86, rac-(1R,2R,3S,4R,5S)-5-hydroxy-3-(1-isopropyl-3-(trifluoromethyl)-1H-pyrazol-4-yl)-N-(4-(trifluoromethyl)pyridin-2-yl)-7-oxabicyclo[2.2.1]heptane-2-carboxamide] | 11 µM | 83% |  |  |
| rac-(1R 2R,3S,4R,5S)—N-(4-fluoro-3-(trifluoromethyl)phenyl-5-hydroxy-3-(1-methyl-3-(trifluoromethyl)-1H-pyrazol-4-yl)-7-oxabicyclo[2.2.1]heptane-2-carboxamide [Example 56] |  |  | > 30 µM | 32% |
| Cn1nc(C(F)(F)F)cc1[C@H]1[C@H]2O[C@H](C[C@@H]2O)[C@@H]1C(=O)Nc1cc(C(F)(F)F)ccc1C#N (racemic) [Example 72, rac-(1R,2R,3S,4R,5S)—N-(2-cyano-5-(trifluoromethyl)phenyl)-5-hydroxy-3-(1-methyl-3-(trifluoromethyl)-1H-pyrazol-5-yl)-7-oxabicyclo[2.2.1]heptane-2-carboxamide] | 2.1 µM | 72% |  |  |
